# Earlier results as cited in US20060216365A1, “Aromatherapeutic environmental system” (priority 2000, published 2006).
# How the values were obtained:
# [1] = mice, literature (Hikino et al 1980)
# [2] = mice, literature (Hikino et al 1980); remark: listed apart in the source
# [3] = test system: monoamine oxidase; settings: literature (Truitt 1967)
Molecule,prolongation of hexobarbital-induced sleep / enhancement of hexobarbital anesthesis [1],inhibition of stress-induced ulcer formation [2],monoamine oxidase inhibiting activity [3]
CC(=O)O[C@H]1C[C@@H]2C[C@H]3[C@@H]([C@H](OC(C)=O)C[C@H]3C)[C@]1(C)OC2(C)C [Kessyl glycol diacetate],active principles,no inhibitory action,–
C=CCc1cc(OC)c2c(c1)OCO2 [myristicin],–,–,mild degree
Kessyl glycol 2-acetate,active principles,–,–
Kessyl glycol 8-acetate,active principles,–,–
